≈ marks a conversion by molar mass, not a printed value.
Experiments:
Format in all cases: cell-based
[1] = tested on: Staphylococcus epidermidis 831 (MRSE); assay: MIC by broth microdilution, SE 831; conditions: Staphylococcus epidermidis, MRSE, read-out: MIC SE 831
Procedure: (§1) Antibacterial activity in vitro is investigated by broth microdilution method in Meuller-Hinton broth as recommended by NCCLS. All strains tested are clinical isolates either sensitive or resistant to natural glycopeptides. MIC values were determined using the CLSI-recommended broth microdilution procedure (Clinical and Laboratory Standards Institute, Methods for Dilution Antimicrobial Susceptibility Tests for Bacteria That Grow Aerobically; Approved Standard-Seventh Edition.). Automated liquid handlers (Multidrop 384, Labsystems, Helsinki, Finland; Biomek 2000 and Multimek 96, Beckman Coulter, Fullerton Calif.) were used to conduct serial dilutions and liquid transfers. The MIC value for vancomycin is given for comparison. The abbreviations for organisms tested are as follow: SA 100—Staphylococcus aureus 100 (ATCC 29213); SA 757—Staphylococcus aureus 757 (MRSA); SA 2012—Staphylococcus aureus 2012 (VISA); SE 835—Staphylococcus epidermidis 835; SE 831—Staphylococcus epidermidis 831 (MRSE); EFc 101—Enterococcus faecalis 101 (ATCC 29212); EFc 848—Enterococcus faecalis 848 (VRE, Van A); EFcm 800—Enterococcus faecium 800; EFcm 752—Enterococcus faecium 752 (VRE, Van A); SPNE 1195—Streptococcus pneumoniae 1195 (ATCC 49619); SPY 712—Streptococcus pyogenes 712.

[2] = tested on: Enterococcus faecalis 848 (VRE, Van A); assay: MIC by broth microdilution, EFc 848; conditions: Enterococcus faecalis, VRE, read-out: MIC E FC 848, Enterococcus faecalis 848 (VRE, Van A); class symbols
Procedure: as §1

[3] = tested on: Staphylococcus aureus 2012 (VISA); assay: MIC by broth microdilution, SA 2012; conditions: Staphylococcus aureus, VISA, read-out: MIC SA 2012, Staphylococcus aureus 2012 (VISA); class symbols
Procedure: as §1

[4] = tested on: Enterococcus faecium 752 (VRE, Van A); assay: MIC by broth microdilution, EFcm 752; conditions: Enterococcus faecium, VRE, read-out: MIC E FCM 752, Enterococcus faecium 752 (VRE, Van A); class symbols
Procedure: as §1

[5] = tested on: Streptococcus pneumoniae 1195 (ATCC 49619); assay: MIC by broth microdilution, SPNE 1195; conditions: Streptococcus pneumoniae, ATCC49619, read-out: MIC S PNE 1195
Procedure: as §1

[6] = tested on: Staphylococcus aureus 100 (ATCC 29213); assay: MIC by broth microdilution, SA 100; conditions: Staphylococcus aureus, ATCC29213, read-out: MIC SA 100
Procedure: as §1

[7] = tested on: Enterococcus faecalis 101 (ATCC 29212); assay: MIC by broth microdilution, EFc 101; conditions: Enterococcus faecalis, ATCC29212, read-out: MIC E FC 101, Enterococcus faecalis 101 (ATCC 29212); class symbols
Procedure: as §1

[8] = tested on: Streptococcus pyogenes 712; assay: MIC by broth microdilution, SPY 712; conditions: Streptococcus pyogenes, 712, read-out: MIC S PYO 712
Procedure: as §1

[9] = tested on: Enterococcus faecium 800; assay: MIC by broth microdilution, EFcm 800; conditions: Enterococcus faecium, 800, read-out: MIC E FCM 800
Procedure: as §1

[10] = tested on: Staphylococcus aureus 757 (MRSA); assay: MIC by broth microdilution, SA 757; conditions: Staphylococcus aureus, MRSA, read-out: MIC SA 757
Procedure: as §1

[11] = tested on: Staphylococcus epidermidis 835; assay: MIC by broth microdilution, SE 835; conditions: Staphylococcus epidermidis, 835, read-out: MIC SE 835
Procedure: as §1

| Structure (SMILES) | MIC [1] [µg/mL] | MIC [2] [µg/mL] | MIC [3] [µg/mL] | MIC [4] [µg/mL] | MIC [5] [µg/mL] | MIC [6] [µg/mL] | MIC [7] [µg/mL] | MIC [8] [µg/mL] | MIC [9] [µg/mL] | MIC [10] [µg/mL] | MIC [11] [µg/mL] |
| --- | --- | --- | --- | --- | --- | --- | --- | --- | --- | --- | --- |
| CCCCCOCCNC(=O)Oc1cc(O)c2c(c1)[C@@H](C(=O)NC1C3CC4CC(C3)CC1C4)NC(=O)[C@H]1NC(=O)[C@H](NC(=O)[C@@H]3NC(=O)[C@H](CC(N)=O)NC(=O)[C@H](NC(=O)[C@@H](CC(C)C)NC)[C@H](O)c4ccc(c(Cl)c4)Oc4cc3cc(c4O[C@@H]3O[C@H](CO)[C@@H](O)[C@H](O)[C@H]3O[C@H]3C[C@](C)(N)[C@H](O)[C@H](C)O3)Oc3ccc(cc3Cl)[C@H]1O)c1ccc(O)c-2c1 (stereo partly shown) [Compound 340] | 0.01 to 0.5 (≈ 0.00575 to 0.287 µM) | 8 to 16 (≈ 4.6 to 9.2 µM) | 0.5 to 1 (≈ 0.287 to 0.575 µM) | 2 to 4 (≈ 1.15 to 2.3 µM) | 0.01 to 0.5 (≈ 0.00575 to 0.287 µM) | 0.01 to 0.5 (≈ 0.00575 to 0.287 µM) | 0.01 to 0.5 (≈ 0.00575 to 0.287 µM) | 0.01 to 0.5 (≈ 0.00575 to 0.287 µM) | 0.01 to 0.5 (≈ 0.00575 to 0.287 µM) | 0.01 to 0.5 (≈ 0.00575 to 0.287 µM) | 0.01 to 0.5 (≈ 0.00575 to 0.287 µM) |
| CCCCCCc1ccc(NC(=O)NCCCCCCNC(=O)Oc2cc(O)c3c(c2)[C@@H](C(=O)O)NC(=O)[C@H]2NC(=O)[C@H](NC(=O)[C@@H]4NC(=O)[C@H](CC(N)=O)NC(=O)[C@H](NC(=O)[C@@H](CC(C)C)NC)[C@H](O)c5ccc(c(Cl)c5)Oc5cc4cc(c5O[C@@H]4O[C@H](CO)[C@@H](O)[C@H](O)[C@H]4O[C@H]4C[C@](C)(N)[C@H](O)[C@H](C)O4)Oc4ccc(cc4Cl)[C@H]2O)c2ccc(O)c-3c2)cc1 (atropisomer, axis not shown) [Compound 354] | 0.01 to 0.5 (≈ 0.00557 to 0.279 µM) | 2 to 4 (≈ 1.11 to 2.23 µM) | 0.5 to 1 (≈ 0.279 to 0.557 µM) | 0.01 to 0.5 (≈ 0.00557 to 0.279 µM) | 0.01 to 0.5 (≈ 0.00557 to 0.279 µM) | 0.01 to 0.5 (≈ 0.00557 to 0.279 µM) | 0.01 to 0.5 (≈ 0.00557 to 0.279 µM) | 0.01 to 0.5 (≈ 0.00557 to 0.279 µM) | 0.01 to 0.5 (≈ 0.00557 to 0.279 µM) | 0.01 to 0.5 (≈ 0.00557 to 0.279 µM) | 0.01 to 0.5 (≈ 0.00557 to 0.279 µM) |
| CCCCOc1ccc(CCNC(=O)Oc2cc(O)c3c(c2)[C@@H](C(=O)NC2C4CC5CC(C4)CC2C5)NC(=O)[C@H]2NC(=O)[C@H](NC(=O)[C@@H]4NC(=O)[C@H](CC(N)=O)NC(=O)[C@H](NC(=O)[C@@H](CC(C)C)NC)[C@H](O)c5ccc(c(Cl)c5)Oc5cc4cc(c5O[C@@H]4O[C@H](CO)[C@@H](O)[C@H](O)[C@H]4O[C@H]4C[C@](C)(N)[C@H](O)[C@H](C)O4)Oc4ccc(cc4Cl)[C@H]2O)c2ccc(O)c-3c2)cc1 (stereo partly shown) [Compound 339] | 0.01 to 0.5 (≈ 0.00555 to 0.278 µM) | 4 to 8 (≈ 2.22 to 4.44 µM) | 0.5 to 1 (≈ 0.278 to 0.555 µM) | 0.5 to 1 (≈ 0.278 to 0.555 µM) | 0.01 to 0.5 (≈ 0.00555 to 0.278 µM) | 0.01 to 0.5 (≈ 0.00555 to 0.278 µM) | 0.01 to 0.5 (≈ 0.00555 to 0.278 µM) | 0.01 to 0.5 (≈ 0.00555 to 0.278 µM) | 0.01 to 0.5 (≈ 0.00555 to 0.278 µM) | 0.01 to 0.5 (≈ 0.00555 to 0.278 µM) | 0.01 to 0.5 (≈ 0.00555 to 0.278 µM) |
| CCCCCOCCNC(=O)Oc1cc(O)c2c(c1)[C@@H](C(=O)O)NC(=O)[C@H]1NC(=O)[C@H](NC(=O)[C@@H]3NC(=O)[C@H](CC(N)=O)NC(=O)[C@H](NC(=O)[C@@H](CC(C)C)NC)[C@H](O)c4ccc(c(Cl)c4)Oc4cc3cc(c4O[C@@H]3O[C@H](CO)[C@@H](O)[C@H](O)[C@H]3O[C@H]3C[C@](C)(N)[C@H](O)[C@H](C)O3)Oc3ccc(cc3Cl)[C@H]1O)c1ccc(O)c-2c1 (atropisomer, axis not shown) [Compound 348] | 4 to 8 (≈ 2.49 to 4.98 µM) | > 16 | 8 to 16 (≈ 4.98 to 9.96 µM) | > 16 | 0.01 to 0.5 (≈ 0.00622 to 0.311 µM) | 2 to 4 (≈ 1.24 to 2.49 µM) | 2 to 4 (≈ 1.24 to 2.49 µM) | 0.5 to 1 (≈ 0.311 to 0.622 µM) | 1 to 2 (≈ 0.622 to 1.24 µM) | 2 to 4 (≈ 1.24 to 2.49 µM) | 4 to 8 (≈ 2.49 to 4.98 µM) |
| CNCCCCCNC(=O)Oc1cc(O)c2c(c1)[C@@H](C(=O)NC1C3CC4CC(C3)CC1C4)NC(=O)[C@H]1NC(=O)[C@H](NC(=O)[C@@H]3NC(=O)[C@H](CC(N)=O)NC(=O)[C@H](NC(=O)[C@@H](CC(C)C)NC)[C@H](O)c4ccc(c(Cl)c4)Oc4cc3cc(c4O[C@@H]3O[C@H](CO)[C@@H](O)[C@H](O)[C@H]3O[C@H]3C[C@](C)(N)[C@H](O)[C@H](C)O3)Oc3ccc(cc3Cl)[C@H]1O)c1ccc(O)c-2c1 (stereo partly shown) [Compound 336] | 0.01 to 0.5 (≈ 0.0058 to 0.29 µM) | > 16 | 1 to 2 (≈ 0.58 to 1.16 µM) | > 16 | 0.01 to 0.5 (≈ 0.0058 to 0.29 µM) | 0.01 to 0.5 (≈ 0.0058 to 0.29 µM) | 0.01 to 0.5 (≈ 0.0058 to 0.29 µM) | 0.01 to 0.5 (≈ 0.0058 to 0.29 µM) | 0.01 to 0.5 (≈ 0.0058 to 0.29 µM) | 0.01 to 0.5 (≈ 0.0058 to 0.29 µM) | 0.01 to 0.5 (≈ 0.0058 to 0.29 µM) |

From US20110015119A1, “NOVEL SEMI-SYNTHETIC GLYCOPEPTIDES AS ANTIBACTERIAL AGENTS” (LEAD THERAPEUTICS, INC., priority 2009, published 2011)
